Measured values from patent publication US20110257144A1 (APEX LABORATORIES PRIVATE LIMITED, priority 2008, published 2011).

Legend:
[1] = Stability of raw API after 3 months in open and closed Petri dish, stability-indicating HPLC method and titration method; type: physicochemical; conditions: for Percentage Drop (%) HPLC: after 3 months; for *Initial (%): assay at the time of receipt of the API from the supplier
Description: Degradation due to oxidation is a major cause of instability of currently available Fusidic acid creams. […] It can be observed from Tables 1 and 2 that: • In the case of Fusidic Acid, there is about 7.7% loss in 3 Months at room temperature (open condition) and about 11% loss in 3 Months at 45° C. […] (open condition).

Staphylococcus aureus = assay: In vitro antimicrobial zone of inhibition study; type: cell-based
Description: API-stability experiments were carried out (see tables 4-14) using the product of the present invention and products currently commercially available. Tests were carried out to observe (or measure as appropriate) the physical appearance of the product, the pH value and assay of the API over a period of time. Tests were also carried out to assess the stability by subjecting the product to stress studies such as autoclave test and oxydative degradation test. Further, in vitro antimicrobial zone of inhibition studies were also carried out over a period of time. […] The antimicrobial/antibacterial activity of the product is confirmed by the in vitro Antimicrobial Zone of Inhibition studies for the product against Staphylococcus aureus. The details of the studies are detailed below in Table 15.

SMILES | Percentage Drop (%) HPLC ([1]; 45° C. (Open) Petri dish) | Percentage Drop (%) HPLC ([1]; RT (Open) Petri dish) | *Initial (%) ([1]; listed as FUSIDIC ACID BP) | Inference (Staphylococcus aureus; dose 10 mcg) | Zone Diameter Range (mm) (Staphylococcus aureus; dose 10 mcg) | Inference (Staphylococcus aureus; dose 20 mcg) | Zone Diameter Range (mm) (Staphylococcus aureus; dose 20 mcg) | Inference (Staphylococcus aureus; dose 50 mcg) | Zone Diameter Range (mm) (Staphylococcus aureus; dose 50 mcg) | Inference (Staphylococcus aureus; dose 10 Units) | Zone Diameter Range (mm) (Staphylococcus aureus; dose 10 Units) | stability as an API (comparison) ([1]; Sodium Fusidate versus Fusidic acid, Tables 1 and 2) | *Initial (%) ([1]; listed as Sodium Fusidate BP)
CC(=O)O[C@H]1C[C@@]2(C)[C@@H](C[C@@H](O)[C@H]3[C@@]4(C)CC[C@@H](O)[C@@H](C)[C@@H]4CC[C@@]32C)/C1=C(\CCC=C(C)C)C(=O)O [Fusidic acid] | about 11% | about 7.7% | 100.6 | Sensitive | 21-33 mm | Sensitive | 20-30 mm | Sensitive | 25-32 mm | – | – | – | –
CC1(C)S[C@@H]2[C@H](NC(=O)Cc3ccccc3)C(=O)N2[C@H]1C(=O)O [Penicillin G] | – | – | – | – | – | – | – | – | – | Resistant | 21-27 mm | – | –
CC(=O)O[C@H]1C[C@@]2(C)[C@@H](C[C@@H](O)[C@H]3[C@@]4(C)CC[C@@H](O)[C@@H](C)[C@@H]4CC[C@@]32C)/C1=C(\CCC=C(C)C)C(=O)O [Sodium Fusidate] | about 6% | about 2.5% | – | – | – | – | – | – | – | – | – | more stable than Fusidic acid | 98.7
